From patent US8685970B2, “Quinolines and related analogs as sirtuin modulators” (GlaxoSmithKline, LLC, priority 2008, dated 2014)

molecular target: T1, SIRT1 (Homo sapiens, UniProt Q96EB6); assay: Mass spectrometry based SIRT1 deacetylation assay (activation); assay type: biochemical; details: 10 nM SIRT1, 0.5 μM peptide substrate, 120 μM βNAD+, 25 min at 25° C.
T1 sequence (Q96EB6 1-747): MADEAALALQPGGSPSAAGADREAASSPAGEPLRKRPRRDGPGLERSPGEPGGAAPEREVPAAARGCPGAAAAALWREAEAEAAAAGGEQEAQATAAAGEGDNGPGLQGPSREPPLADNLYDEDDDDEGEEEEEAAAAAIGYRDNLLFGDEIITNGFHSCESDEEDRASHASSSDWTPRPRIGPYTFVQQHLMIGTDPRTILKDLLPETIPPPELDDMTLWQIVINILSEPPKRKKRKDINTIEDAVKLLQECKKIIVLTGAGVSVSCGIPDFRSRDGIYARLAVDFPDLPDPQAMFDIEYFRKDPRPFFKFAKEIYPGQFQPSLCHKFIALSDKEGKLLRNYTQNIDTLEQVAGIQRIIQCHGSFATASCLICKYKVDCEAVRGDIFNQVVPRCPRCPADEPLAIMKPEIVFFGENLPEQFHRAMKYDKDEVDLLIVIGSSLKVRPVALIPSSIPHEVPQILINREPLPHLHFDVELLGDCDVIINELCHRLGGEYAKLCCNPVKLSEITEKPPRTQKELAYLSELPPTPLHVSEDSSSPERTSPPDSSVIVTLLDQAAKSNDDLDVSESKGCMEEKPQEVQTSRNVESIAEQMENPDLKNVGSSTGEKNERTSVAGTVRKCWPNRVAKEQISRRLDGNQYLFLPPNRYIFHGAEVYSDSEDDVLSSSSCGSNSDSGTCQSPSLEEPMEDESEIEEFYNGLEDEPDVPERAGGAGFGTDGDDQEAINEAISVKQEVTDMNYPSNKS
In short: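 Recombinant N-His-tagged SIRT1 (E. coli BL21(DE3)), 10 nM, incubated 25 min at 25 °C with 0.5 μM biotin/5TMR-labelled acetyl-p53-derived 20-mer peptide and 120 μM βNAD+ in Tris-acetate pH 8 buffer with DTT and BSA. Formic acid stop; MS quantifies acetylated vs deacetylated peptide. EC1.5 = concentration giving 150% activation versus DMSO.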

% Fold Act. (percent maximum fold activation), A (Fold activation >200%):
O=C(Nc1ncnc2ccc(-c3cccc(OC(F)(F)F)c3)nc12)c1ccc(CN2CCCC2)cc1 [Compound 232]
O=C(Nc1cccc2ccc(-c3cccc(C(F)(F)F)c3)nc12)c1cscn1 [Compound 5]
O=C(Nc1cccnc1)c1cccc2ccc(-c3cccc(OC4CCNCC4)c3)nc12 [Compound 132]
O=C(Nc1cccc2ccc(-c3ccccc3)nc12)c1cscn1 [Compound 2]
O=C(Nc1cccc2ccc(-c3cccc(CN4CCOCC4)c3)nc12)c1cscn1 [Compound 120]
O=C(Nc1cccc2ccc(-c3cccc(C(F)(F)F)c3)nc12)c1cccc(OC[C@@H](O)CO)n1 [Compound 203]
O=C(Nc1cccc2ccc(-c3cccc(OC(F)(F)F)c3)nc12)c1cscn1 [Compound 7]
O=C(Nc1cccc(OC2CCNCC2)c1)c1cccc2ccc(-c3cccc(C(F)(F)F)c3)nc12 [Compound 256]
CN1CCOc2cc(-c3ccc4cccc(NC(=O)c5cscn5)c4n3)ccc21 [Compound 202]
O=C(Nc1ncc(CN2CCCC2)s1)c1cccc2ccc(-c3cccc(C(F)(F)F)c3)nc12 [Compound 219]
O=C(Nc1cccc(CN2CCOCC2)n1)c1cccc2ccc(-c3cccc(C(F)(F)F)c3)nc12 [Compound 228]
COC(=O)c1ccc(NC(=O)c2cccc3ccc(-c4cccc(C(F)(F)F)c4)nc23)o1 [Compound 61]
O=C(Nc1ccc(CN2CCCC2)cn1)c1cccc2ccc(-c3cccc(C(F)F)c3)nc12 [Compound 302]
O=C(Nc1cccnc1)c1cccc2ccc(-c3ccccc3C(F)(F)F)nc12 [Compound 86]
Cc1cc(C)nc(NC(=O)c2cccc3ccc(-c4cccnc4)nc23)c1 [Compound 248]
Cn1cnc(C(=O)Nc2cccc3ccc(-c4cccnc4)nc23)c1 [Compound 294]
O=C(Nc1cccc(CN2CCOCC2)c1)c1cccc2ccc(-c3cccc(C(F)(F)F)c3)nc12 [Compound 255]
O=C(Nc1nc(CN2CCOCC2)cs1)c1cccc2ccc(-c3ccccc3C(F)(F)F)nc12 [Compound 274]
O=C(Nc1nccs1)c1cccc2ccc(-c3cccc(C(F)F)c3)nc12 [Compound 247]
O=C(Nc1cccc2ccc(-c3ccc(O)cc3)nc12)c1cscn1 [Compound 186]
O=C(Nc1nccs1)c1cccc2ccc(-c3cccc(N4CCOCC4)c3)nc12 [Compound 108]
Cn1ccnc1C(=O)Nc1cccc2ccc(-c3cccc(C(F)(F)F)c3)nc12 [Compound 222]

% Fold Act. (percent maximum fold activation), B (Fold Activation <200%):
O=C(NC1CCOCC1)c1cccc2ccc(-c3cccc(C(F)(F)F)c3)nc12 [Compound 39]
O=C(Nc1cccc2ccc(-c3cccc(F)c3)nc12)c1cscn1 [Compound 74]
O=C(N[C@H]1CCNC1)c1cccc2ccc(-c3cccc(C(F)(F)F)c3)nc12 [Compound 72]

EC1.5 (concentration of test compound that results in 150% activation of SIRT1), C (EC1.5>25 uM):
O=C(Nc1cccc2ccc(-c3ccccc3)nc12)c1cccc(OC(F)(F)F)c1 [Compound 6]
FC(F)(F)c1cccc(-c2ccc3cccc(NCC4CCCC4)c3n2)c1 [Compound 138]
FC(F)(F)c1cccc(-c2ccc3cccc(NCc4ccccn4)c3n2)c1 [Compound 136]
Fc1cc(-c2ccc3cccc(NCc4cccnc4)c3n2)cc(C(F)(F)F)c1 [Compound 168]
O=C(N[C@H]1CCNC1)c1cccc2ccc(-c3cccc(C(F)(F)F)c3)nc12 [Compound 72]
O=C(Nc1ccccn1)c1cccc2ccc(-c3ccc(C(F)(F)F)cc3)nc12 [Compound 97]
O=C(Nc1cccnc1)c1cccc2ccc(-c3cccnc3)nc12 [Compound 183]
O=C(Nc1nc(-c2ccccc2)cs1)c1cccc2ccc(-c3cccc(C(F)(F)F)c3)nc12 [Compound 54]
FC(F)(F)c1cccc(-c2ccc3cccc(CNc4cccnc4)c3n2)c1 [Compound 105]
O=C(Nc1cccc2ccc(-c3ccncc3)nc12)c1cnccn1 [Compound 155]
FC(F)(F)Oc1cccc(-c2ccc3cccc(NCC4CCCC4)c3n2)c1 [Compound 141]
O=C(Nc1nccs1)c1cccc2cc(C(F)(F)F)c(-c3ccccc3)nc12 [Compound 192]
O=C(Nc1cccnc1)c1cccc2ccc(-c3ccc(C(F)(F)F)cc3)nc12 [Compound 98]
O=C(Nc1cccc2ccc(-c3cccc(OC(F)(F)F)c3)nc12)c1ccc(F)cc1 [Compound 22]

EC1.5 (concentration of test compound that results in 150% activation of SIRT1), B (EC1.5 1-25 uM):
O=C(Nc1ncnc2ccc(-c3cccc(OC(F)(F)F)c3)nc12)c1ccc(CN2CCCC2)cc1 [Compound 232]
O=C(Nc1cccc2ccc(-c3ccccc3)nc12)c1cscn1 [Compound 2]
O=C(Nc1cccc2ccc(-c3cccc(OC(F)(F)F)c3)nc12)c1cscn1 [Compound 7]
O=C(Nc1cccnc1)c1cccc2ccc(-c3ccccc3C(F)(F)F)nc12 [Compound 86]
Cn1cnc(C(=O)Nc2cccc3ccc(-c4cccnc4)nc23)c1 [Compound 294]
O=C(NC1CCOCC1)c1cccc2ccc(-c3cccc(C(F)(F)F)c3)nc12 [Compound 39]
O=C(Nc1cccc2ccc(-c3cccc(F)c3)nc12)c1cscn1 [Compound 74]
O=C(Nc1cccc2ccc(-c3ccc(O)cc3)nc12)c1cscn1 [Compound 186]

EC1.5 (concentration of test compound that results in 150% activation of SIRT1), A (EC1.5<1.0 uM):
O=C(Nc1cccc2ccc(-c3cccc(C(F)(F)F)c3)nc12)c1cscn1 [Compound 5]
O=C(Nc1cccnc1)c1cccc2ccc(-c3cccc(OC4CCNCC4)c3)nc12 [Compound 132]
O=C(Nc1cccc2ccc(-c3cccc(CN4CCOCC4)c3)nc12)c1cscn1 [Compound 120]
O=C(Nc1cccc2ccc(-c3cccc(C(F)(F)F)c3)nc12)c1cccc(OC[C@@H](O)CO)n1 [Compound 203]
O=C(Nc1cccc(OC2CCNCC2)c1)c1cccc2ccc(-c3cccc(C(F)(F)F)c3)nc12 [Compound 256]
CN1CCOc2cc(-c3ccc4cccc(NC(=O)c5cscn5)c4n3)ccc21 [Compound 202]
O=C(Nc1ncc(CN2CCCC2)s1)c1cccc2ccc(-c3cccc(C(F)(F)F)c3)nc12 [Compound 219]
O=C(Nc1cccc(CN2CCOCC2)n1)c1cccc2ccc(-c3cccc(C(F)(F)F)c3)nc12 [Compound 228]
COC(=O)c1ccc(NC(=O)c2cccc3ccc(-c4cccc(C(F)(F)F)c4)nc23)o1 [Compound 61]
O=C(Nc1ccc(CN2CCCC2)cn1)c1cccc2ccc(-c3cccc(C(F)F)c3)nc12 [Compound 302]
Cc1cc(C)nc(NC(=O)c2cccc3ccc(-c4cccnc4)nc23)c1 [Compound 248]
O=C(Nc1cccc(CN2CCOCC2)c1)c1cccc2ccc(-c3cccc(C(F)(F)F)c3)nc12 [Compound 255]
O=C(Nc1nc(CN2CCOCC2)cs1)c1cccc2ccc(-c3ccccc3C(F)(F)F)nc12 [Compound 274]
O=C(Nc1nccs1)c1cccc2ccc(-c3cccc(C(F)F)c3)nc12 [Compound 247]
O=C(Nc1nccs1)c1cccc2ccc(-c3cccc(N4CCOCC4)c3)nc12 [Compound 108]
Cn1ccnc1C(=O)Nc1cccc2ccc(-c3cccc(C(F)(F)F)c3)nc12 [Compound 222]
